The molecules below were run on Staphyloccus aureus (assay: Microbial antiadhesion assay on coated PMMA test pins). Settings: adhering microbes as percent of control pins (acrylate film former only = 100%), test concentration 0.50% in Glascol LS26 acrylate film former, 60 min in S. aureus suspension, immunological detection.
Assay type: cell-based
Procedure: Microbial Antiadhesion Assay
According to the method of Nature Medicine Vol. 6, No. 8, 1053-1056, Zosterate esters are dissolved in a solution containing an acrylate polymeric film former (Glascol LS26, 4.6% active). Test pins made of PMMA are dipped into the solutions, incubated for 20 minutes and allowed to dry. The test pins are incubated in a suspension of Staphyloccus aureus for 60 min, then rinsed with PBS buffer. The microbial cells adhering to the pin are detected in an immunological assay using specific antibodies against the test strain which are then detected […]. The results are reported as a percent relative to the control pins (treated with acrylate film former only), a value of 100% represents the value observed on the control pins; a value of 42% represents a 0.42× the amount of microbes found on the pins treated with acrylate film former only.

Row | Compound | Results on PMMA Based on Control [%]
1 | CCCCOC(=O)/C=C/c1ccc(OS(=O)(=O)O)cc1 [1-Butyl zosterate] | 70
2 | CCC(C)OC(=O)/C=C/c1ccc(OS(=O)(=O)O)cc1 (stereo not drawn) [2-Butyl zosterate] | 42
3 | COC(=O)/C=C/c1ccc(OS(=O)(=O)O)cc1 [Methyl zosterate, Methyl Zosterate] | 28
